{
  "source": "patent US6656906B1",
  "about": "“Hybrid polypeptides with enhanced pharmacokinetic properties” (Trimeris, Inc., priority 1998, dated 2003)",
  "experiment": "Plasma and lymphatic pharmacokinetic analysis after IV bolus",
  "type": "in vivo, rats",
  "conditions": "for clearance / AUC(0-inf) / Cmax / AUC(0-t) / half-life: rat, in vivo; for AUC(0-t): read-out: AUC(0-6h); for half-life: iv, IV bolus, read-out: t½, elimination (converted)",
  "procedure": "For plasma and lymphatic pharmacokinetic analysis of T1249 in rats, T1249 was prepared as a sterile solution in bicarbonate buffer and administered as a single dose, bolus intravenous injection into the lateral tail vain at a dose of […]. Blood was collected from the animal from an in-dwelling jugular catheter. Samples were collected immediately after dosing and at 5, 15, and 30 minutes, and 1, 2, 4, and 6 hours after drug administration. For the analysis of lymphatic fluids, samples were taken immediately before dosing and every 20 minutes for the first six hours after dosing. Lymphatic fluid was collected from a catheter placed directly into the thoracic lymphatic duct as previously described (Kirkpatrick and Silver, 1970, The Journal of Surgical Research 10:147-158).",
  "note": "Read-outs that look alike come from different tables or passages of the source.",
  "data": [
    {"compound": "CC[C@H](C)[C@H](NC(=O)[C@H](CCC(N)=O)NC(=O)[C@H](C)NC(=O)[C@H](CCC(N)=O)NC(=O)[C@H](CCC(=O)O)NC(=O)[C@H](CC(C)C)NC(=O)[C@H](CC(C)C)NC(=O)[C@H](C)NC(=O)[C@@H](NC(=O)[C@@H](NC(=O)[C@H](CCCCN)NC(=O)[C@H](CCC(N)=O)NC(=O)[C@H](CCC(=O)O)NC(=O)[C@H](Cc1c[nH]c2ccccc12)NC(=O)[C@H](CCC(=O)O)NC(=O)[C@H](CCC(N)=O)NC(=O)[C@H](Cc1c[nH]c2ccccc12)NC(C)=O)[C@@H](C)CC)[C@@H](C)O)C(=O)N[C@@H](CCC(N)=O)C(=O)N[C@@H](CCC(N)=O)C(=O)N[C@@H](CCC(=O)O)C(=O)N[C@@H](CCCCN)C(=O)N[C@@H](CC(N)=O)C(=O)N[C@@H](CCC(=O)O)C(=O)N[C@@H](Cc1ccc(O)cc1)C(=O)N[C@@H](CCC(=O)O)C(=O)N[C@@H](CC(C)C)C(=O)N[C@@H](CCC(N)=O)C(=O)N[C@@H](CCCCN)C(=O)N[C@@H](CC(C)C)C(=O)N[C@@H](CC(=O)O)C(=O)N[C@@H](CCCCN)C(=O)N[C@@H](Cc1c[nH]c2ccccc12)C(=O)N[C@@H](C)C(=O)N[C@@H](CO)C(=O)N[C@@H](CC(C)C)C(=O)N[C@@H](Cc1c[nH]c2ccccc12)C(=O)N[C@@H](CCC(=O)O)C(=O)N[C@@H](Cc1c[nH]c2ccccc12)C(=O)N[C@@H](Cc1ccccc1)C(N)=O", "note": "[T1249]", "values": [
      {"measurement": "time to equilibration of lymphatic system with the plasma reservoir", "setting": "after IV administration", "value": "within approximately one hour"},
      {"measurement": "clearance", "setting": "Lymph", "value": 0.192, "unit": "mL/min"},
      {"measurement": "AUC(0-inf)", "setting": "Lymph, averages exclude Rat #1", "value": 449, "unit": "µg·h/mL"},
      {"measurement": "Cmax", "setting": "Lymph, averages exclude Rat #1", "value": 155, "unit": "µg/mL"},
      {"measurement": "AUC(0-t)", "setting": "Lymph, averages exclude Rat #1", "value": 411, "unit": "µg·h/mL"},
      {"measurement": "AUC(0-inf)", "setting": "Lymph, averages include Rat #1", "value": 390, "unit": "µg·h/mL"},
      {"measurement": "Cmax", "setting": "Lymph, averages include Rat #1", "value": 133, "unit": "µg/mL"},
      {"measurement": "AUC(0-t)", "setting": "Lymph, averages include Rat #1", "value": 348, "unit": "µg·h/mL"},
      {"measurement": "AUC(0-inf)", "setting": "Plasma", "value": 598, "unit": "µg·h/mL"},
      {"measurement": "Cmax", "setting": "Plasma", "value": 291, "unit": "µg/mL"},
      {"measurement": "clearance", "setting": "Plasma", "value": 0.13, "unit": "mL/min"},
      {"measurement": "AUC(0-t)", "setting": "Plasma", "value": 506, "unit": "µg·h/mL"},
      {"measurement": "half-life", "setting": "Lymph", "value": "1.3 ± 0.27", "unit": "h"},
      {"measurement": "half-life", "setting": "Plasma", "value": "2.6 ± 0.41", "unit": "h"}
    ]}
  ]
}
